Results: ChEMBL document CHEMBL1142617, “Mycalamides C and D, cytotoxic compounds from the marine sponge Stylinos n. species” (J Nat Prod, 2000)
≈ marks a conversion by molar mass, not a printed value.

System: P388
Test: Cytotoxicity against mouse P388 cells
Type: functional, cell-based

SMILES | IC50 [mg/L]
C=C1C[C@](OC)([C@H](O)C(=O)N[C@H]2OCO[C@H]3[C@@H]2O[C@H](C[C@H](O)CO)C(C)(C)[C@@H]3OC)O[C@H](C)[C@@H]1C [MYCALAMIDE A] | 0.0011 (≈ 0.00218 µM)
C=C1C[C@](OC)([C@H](O)C(=O)N[C@@H]2OCO[C@H]3[C@@H]2O[C@H](CO)C(C)(C)[C@@H]3OC)O[C@H](C)[C@@H]1C [THEOPEDERIN E] | 0.0009 (≈ 0.00196 µM)
C=C1C[C@](OC)([C@H](O)C(=O)N[C@H]2OCO[C@H]3[C@@H]2O[C@H](C[C@H](O)CO)C(C)(C)[C@@H]3O)O[C@H](C)[C@@H]1C [MYCALAMIDE D] | 0.035 (≈ 0.0715 µM)
C=C1C[C@](OC)([C@H](O)C(=O)NC[C@H]2O[C@H](CO)C(C)(C)[C@H](O)[C@H]2O)O[C@H](C)[C@@H]1C [MYCALAMIDE C] | 0.095 (≈ 0.228 µM)
